Here are results for ten compounds from paper PMC4965010 (PLoS ONE, 2016).

This test concerns the target T1, human FXIIIa (Homo sapiens, UniProt P00488).
T1 construct: purchased Haematologic Technologies (Essex Junction, VT)
T1 sequence (P00488 39-732 limits assumed): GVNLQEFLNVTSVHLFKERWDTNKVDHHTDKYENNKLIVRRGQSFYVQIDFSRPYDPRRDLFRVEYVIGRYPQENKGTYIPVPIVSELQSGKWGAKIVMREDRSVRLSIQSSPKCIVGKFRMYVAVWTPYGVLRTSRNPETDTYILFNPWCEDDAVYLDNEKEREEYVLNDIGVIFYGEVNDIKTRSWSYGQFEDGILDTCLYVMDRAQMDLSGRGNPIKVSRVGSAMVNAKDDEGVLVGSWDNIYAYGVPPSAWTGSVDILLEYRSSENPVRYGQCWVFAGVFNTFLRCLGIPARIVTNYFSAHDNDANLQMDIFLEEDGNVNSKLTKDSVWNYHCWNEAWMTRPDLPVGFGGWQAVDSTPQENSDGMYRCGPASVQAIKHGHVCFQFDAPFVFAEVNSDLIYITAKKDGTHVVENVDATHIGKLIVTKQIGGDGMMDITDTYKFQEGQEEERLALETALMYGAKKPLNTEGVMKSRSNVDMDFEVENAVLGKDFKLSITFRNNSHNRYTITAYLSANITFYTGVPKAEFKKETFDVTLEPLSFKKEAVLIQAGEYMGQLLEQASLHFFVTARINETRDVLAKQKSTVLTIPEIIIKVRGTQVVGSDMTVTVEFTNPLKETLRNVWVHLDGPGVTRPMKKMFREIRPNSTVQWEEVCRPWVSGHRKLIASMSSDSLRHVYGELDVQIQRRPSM
Kind of test: bisubstrate, fluorescence-based transglutamination assay (dansylcadaverine / N,N-dimethylcasein). It counts as biochemical. Conditions: pH 8.0, 37°C; for inhibition at 20 µM: pH 8, 20 μM. The protocol: The library of sulfated molecules was screened for inhibition of human FXIIIa using a modified bisubstrate, fluorescence-based transglutamination assay, as described earlier. Dansylcadaverine and N,N-dimethyl-casein were used as two substrates, which upon FXIIIa-dependence conjugation show a marked increase in fluorescence at 550 nm (λEX = 360 nm). Initial screening was performed at 200 μM NSGM concentration (1–15) or 50–1110 μM GAG concentration (16–22) (Table 1). At these levels, none of GAGs inhibited FXIIIa by more than 5%. […] Trimeric scaffolds 13 and 14 inhibited FXIIIa by 94% and 29%, respectively. […] To identify promising NSGMs from these, screening was performed at a lower concentration (20 μM).
Direct inhibition of human FXIIIa was measured spectrofluorometrically by a bisubstrate, fluorescence-based transglutamination assay at pH 8.0 and 37°C on a microplate reader (FlexStation III, Molecular Devices) (modified from earlier reports). Briefly, to each well of a 96-well microplate containing 80 μL of 50 mM TrisHCl buffer, pH 8.0, containing 100 mM NaCl, 10 mM CaCl2, and 2 mg/mL dimethylcasein was added 5 μL potential NSGM-based inhibitor (0–20 mM aqueous solution) or vehicle, 5 μL DTT (20 mM), and 5 μL enzyme (0.12–1.2 μM) at 37°C. After 5 min incubation, 5 μL of dansylcadaverine (2.5 mM) was rapidly added and the residual enzyme activity was measured from the initial rate of increase in RFU (λEM = 550 nm, λEX = 360 nm). Relative residual enzyme activity (Y) as a function of the concentration of sulfated molecule was fitted using logistic Eq 1 to obtain the potency (IC50), efficacy (ΔY) and Hill slope (HS) of inhibition. In this equation, YM and Yo are the maximal and minimal values of Y.

Setting [1] is: pH 8, 200 μM, read-out: FXIIIa inhibition at 200 μM (%).

Like-named read-outs stand apart in the source and are kept apart here. Marks after values point to notes of the source that are not given here.

Take `NC(=O)CI` [IAA, Iodoacetamide, reference compound]: the “HS, Hill slope (FXIIIa)” value stood at 0.8 ± 0.2; 2900 ± 400 nM corresponded to half-maximal inhibition (IC50); the “ΔY, efficacy (FXIIIa)” value came out at 105 ± 10%. Further, the “ΔY, efficacy (FXIIIa)” value (listed as Iodoacetamide) is on record as ~ 100%.
Consider `O=c1c(OS(=O)(=O)O)c(-c2ccc(OS(=O)(=O)O)c(OS(=O)(=O)O)c2)oc2cc(OS(=O)(=O)O)cc(OS(=O)(=O)O)c12` [Molecule 1], for which the “FXIIIa inhibition at 200 μM (%)” value is reported as 31 ± 4^b %. The inhibition at 200 µM (pH 8, read-out: FXIIIa inhibition at 200 μM (%), 200 μM) is roughly 30%.
In the case of `O=S(=O)(O)Oc1cc2c(c(OS(=O)(=O)O)c1)C[C@H](OS(=O)(=O)O)[C@@H](c1ccc(OS(=O)(=O)O)c(OS(=O)(=O)O)c1)O2` [Molecule 2], the “FXIIIa inhibition at 200 μM (%)” value is reported as 32 ± 6%. Under setting [1], the inhibition at 200 µM is roughly 30%.
In turn, `O=c1c(OS(=O)(=O)O)c(-c2ccc(OS(=O)(=O)O)c(OS(=O)(=O)O)c2)oc2cc(OS(=O)(=O)O)cc(OCCOc3cc(OS(=O)(=O)O)cc4oc(-c5ccc(OS(=O)(=O)O)c(OS(=O)(=O)O)c5)c(OS(=O)(=O)O)c(=O)c34)c12` [Molecule 3] registered an inhibition at 20 µM of 27 to 40%. Moreover, under “20 μM”, the “FXIIIa inhibition at 20 μM (%)” value worked out at 26 ± 2%. Besides, under setting [1], the inhibition at 200 µM was found to be 65 ± 3%.
Regarding `O=c1c(OS(=O)(=O)O)c(-c2ccc(OS(=O)(=O)O)c(OS(=O)(=O)O)c2)oc2cc(OS(=O)(=O)O)cc(OCCCOc3cc(OS(=O)(=O)O)cc4oc(-c5ccc(OS(=O)(=O)O)c(OS(=O)(=O)O)c5)c(OS(=O)(=O)O)c(=O)c34)c12` [Molecule 4], under setting [1], the inhibition at 200 µM was determined as 67 ± 5%.
Turning to `O=c1c(OS(=O)(=O)O)c(-c2ccc(OS(=O)(=O)O)c(OS(=O)(=O)O)c2)oc2cc(OS(=O)(=O)O)cc(OCCCCOc3cc(OS(=O)(=O)O)cc4oc(-c5ccc(OS(=O)(=O)O)c(OS(=O)(=O)O)c5)c(OS(=O)(=O)O)c(=O)c34)c12` [Molecule 6], the inhibition at 20 µM stood at 40 ± 3%. The inhibition at 200 µM under setting [1] turned out to be 89 ± 5%.
The corresponding values for `O=c1c(OS(=O)(=O)O)c(-c2ccc(OS(=O)(=O)O)c(OS(=O)(=O)O)c2)oc2cc(OS(=O)(=O)O)cc(OC/C=C/COc3cc(OS(=O)(=O)O)cc4oc(-c5ccc(OS(=O)(=O)O)c(OS(=O)(=O)O)c5)c(OS(=O)(=O)O)c(=O)c34)c12` [Molecule 7] are 31 ± 3% and 58 ± 4%.
In the case of `O=c1c(OS(=O)(=O)O)c(-c2ccc(OS(=O)(=O)O)c(OC/C=C/COc3cc(-c4oc5cc(OS(=O)(=O)O)cc(O)c5c(=O)c4OS(=O)(=O)O)ccc3OS(=O)(=O)O)c2)oc2cc(OS(=O)(=O)O)cc(O)c12` [Molecule 8], the inhibition at 200 µM under setting [1] turned out to be 84 ± 5%.
For `CO[C@H]1O[C@H](COS(=O)(=O)O)[C@@H](O[C@@H]2O[C@@H](C(=O)O)[C@@H](O[C@H]3O[C@H](COS(=O)(=O)O)[C@@H](O[C@@H]4O[C@H](C(=O)O)[C@@H](O[C@H]5O[C@H](COS(=O)(=O)O)[C@@H](O)[C@H](O)[C@H]5NS(=O)(=O)O)[C@H](O)[C@H]4O)[C@H](OS(=O)(=O)O)[C@H]3NS(=O)(=O)O)[C@H](O)[C@H]2OS(=O)(=O)O)[C@H](O)[C@H]1NS(=O)(=O)O` [Molecule 18, fondaparinux, reference compound], the inhibition at 360 µM (pH 8, at 360 μM) is roughly 0%.
Regarding `O=S(=O)(O)OC[C@H]1O[C@@](COS(=O)(=O)O)(O[C@H]2O[C@H](COS(=O)(=O)O)[C@@H](OS(=O)(=O)O)[C@H](OS(=O)(=O)O)[C@H]2OS(=O)(=O)O)[C@@H](OS(=O)(=O)O)[C@@H]1OS(=O)(=O)O` [Molecule 22, sucrose octasulfate, reference compound], the inhibition at 200 µM under setting [1] was roughly 17%.

For orientation: IC50 means the concentration that gives 50% inhibition. Low values mean higher potency, high ones lower potency. A word on the inhibition: it is how much of the control response was suppressed.
